# Laboratory results from patent publication US20230398586A1, “METHOD FOR DECOMPOSING PLANT MATTER” (DANSTAR FERMENT AG, priority 2020, published 2023).
# Legend:
# Format in all cases: in vivo
# [1] = system: Venturia inaequalis ascospores; assay: Ascospore projection from overwintered leaves (Kollar waterbath protocol); conditions: M2: one application at 50 kg/ha (30% fallen leaves); untreated control 139
# Description: The objective of this trial was to evaluate the efficacy of the soluble yeast cell wall derivatives on their ability to reduce the apple scab inoculum (i.e. ascospores) on overwintering leaves.
# The trial was carried out on a “Gala” apple variety in an orchard severely affected by apple scab.
# The following treatments were tested: M1: untreated control; M2: urea, one application at […]: soluble yeast cell wall derivatives (Lallemand), one application at 5 l/ha (30% fallen leaves); M4: soluble yeast cell wall derivatives, one application at 10 l/ha (30% fallen leaves); M5: soluble yeast cell wall derivatives, two applications at 10 l/ha (first application at beginning of leaf drop and second application at 30% fallen leaves). Each treatment had three replicates.
# One batch of 100 g of leaves per replication was placed in plastic mesh bags with fine mesh on the outdoor ground, in orchard conditions. Treatments were applied in November to the trees using a backpack sprayer (SOLO) at a volume of 1000 L/ha. […]
# The ascospore projection of Venturia inaequalis was evaluated in March. […]
# All meteorological records came from the SudAgroMétéo station on the SudExpé Marsillargues site. […] The results were analyzed using a one-way ANOVA and multiple comparisons of the mean were analysed using a Tukey post-hoc test at 5% threshold. […]
# [2] = system: apple tree leaves on the orchard floor; assay: Leaf area degradation by leaf area scanner, first trial; conditions: for Average leaf area reduction: leaf area scanning method
# Description: (§1) At 95% leaf drop, two populations of autumn leaves were collected: 1) yellow leaves (yellow leaves ready to fall; harvested from the treatment trees and placed into wire grids; and 2) brown leaves (brown leaves which have fallen but not yet showing visible degradation collected from the orchard floor and placed into wire grids).
# (§2) The following treatments were tested: 1) untreated control (no application); 2) water control (1000 L water per hectare); 3) urea ([…] per 1000 L per hectare); and 4) soluble yeast cell wall derivatives (Lallemand) (5 kg dry matter/ha; 10 L/ha in 1000 L water per hectare).
# (§3) Treatments were applied to the soil using a non-mechanised back pack sprayer as applicator, in a one meter radius around the tree stem (grids were placed within this circumference).
# (§4) Treatment application times: 1) 95% leaf drop; 2) 95% leaf drop+two weeks; and 3) 95% leaf drop+four weeks.
# Leaf degradation was expressed as the reduction in leaf area (mm^2) based on readings taken with a leaf area scanner (LI-COR, LI-3050C Transparent Belt Conveyor). Samples were placed onto a transparent conveyor belt which allowed the leaf to pass through the scanning head. The accumulated leaf area was determined by passing all leaves of a grid through the scanner and subsequently an average per leaf area (mm 2).
# [3] = system: apple tree leaves on the orchard floor; assay: Visual in-field leaf degradation rating per grid, first trial
# From the text: The objective of this trial was to establish the potential of soluble yeast cell wall derivatives to accelerate degradation of apple tree leaves on the orchard floor thereby reducing overwintering potential of apple scab (Venturia inaequalis).
# as §1, §2, §3, §4
# All evaluations were done separately on each of the two leaf populations selected at the start of the trial.
# Leaf degradation according to a 0-9 scale, on a per grid estimate, reflecting the surface area which has decomposed; with “0” representing no degradation, “3” being approx. 30% degradation, “6” representing 60% degradation, and “9” complete degradation. […]
# [4] = brown leaves, 4 weeks after the last application
# [5] = brown leaves, 8 weeks after the last application
# [6] = brown leaves, 10 weeks after the last application
# [7] = yellow leaves, 6 weeks after the last application
# [8] = yellow leaves, 8 weeks after the last application
# [9] = yellow leaves, 10 weeks after the last application
compound,measurement,setting,value
NC(N)=O [urea],Average concentration of apple scab ascospores discharged in the overwintered leaves,[1],39 ascospores/μl
same,Leaf area reduction relative to the water control,[2]; brown leaves,(+52%)
same,Average leaf area reduction,[2]; brown leaves,14.1 bc mm^2
same,Leaf area reduction relative to the water control,[2]; yellow leaves,(+10%)
same,Average leaf area reduction,[2]; yellow leaves,15.0 abc mm^2
same,"Average leaf degradation score in the sampling grids, degradation category (scale 0-9)",[3]; [4],1.0
same,percentage by which leaf degradation of a treatment exceeded the water control,[3]; [4],(+43%)
same,"Average leaf degradation score in the sampling grids, degradation category (scale 0-9)","[3]; brown leaves, 6 weeks after the last application",2.2 ab
same,"Average leaf degradation score in the sampling grids, degradation category (scale 0-9)",[3]; [5],3.2 ab
same,percentage by which leaf degradation of a treatment exceeded the water control,[3]; [5],(+60%)
same,"Average leaf degradation score in the sampling grids, degradation category (scale 0-9)",[3]; [6],4.3 ab
same,percentage by which leaf degradation of a treatment exceeded the water control,[3]; [6],(+34%)
same,"Average leaf degradation score in the sampling grids, degradation category (scale 0-9)","[3]; brown leaves, 12 weeks after the last application",5.7 ab
same,leaf degradation reached,"[3]; first trial, 12 weeks after the last application, cold weather, lack of rains",≤ 50%
same,"Average leaf degradation score in the sampling grids, degradation category (scale 0-9)","[3]; yellow leaves, 4 weeks after the last application",1.3a
same,"Average leaf degradation score in the sampling grids, degradation category (scale 0-9)",[3]; [7],2.5a
same,percentage by which leaf degradation of a treatment exceeded the water control,[3]; [7],(+39%)
same,"Average leaf degradation score in the sampling grids, degradation category (scale 0-9)",[3]; [8],3.2a
same,percentage by which leaf degradation of a treatment exceeded the water control,[3]; [8],(+14%)
same,"Average leaf degradation score in the sampling grids, degradation category (scale 0-9)",[3]; [9],3.8 a
same,percentage by which leaf degradation of a treatment exceeded the water control,[3]; [9],(+9%)
same,"Average leaf degradation score in the sampling grids, degradation category (scale 0-9)","[3]; yellow leaves, 12 weeks after the last application",5.3ab
